Key:
[1] = test system: BT474 and HN5 tumor cell lines; assay: Methylene blue growth inhibition assay (cellular Method A); assay type: cell-based, Human; conditions: Homo sapiens, BT-474, 72 h, 3 days, read-out: Activity (Method): growth inhibition IC50 class
Outline: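 Colo205, BT474 and HN5 cells in DMEM/10% FBS (BT474 10,000, HN5 3,000 cells/well) treated next day with compound in DMEM, 0.3% final DMSO, for 3 days at 37° C. Biomass stained with methylene blue, solubilized, read at OD 620; IC50 interpolated by nonlinear regression from % inhibition versus vehicle.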

[2] = target: T1, ErbB2 or EGFR; assay: ErbB family substrate phosphorylation enzyme assay (HTRF), Method A or Method B; assay type: biochemical
T1 construct: enzymes purified from a baculovirus expression system; Reagent production was conducted essentially as described in Brignola, P. S., et al, (2002) J. Biol. Chem. 277(2): 1576-1585
Outline: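 Baculovirus-expressed EGFR or ErbB2 (0.8 or 10 nM in enzyme mix) phosphorylates biotinylated Peptide C with 20 µM ATP and 0.8 µM peptide (substrate-mix levels), MnCl2, pH 7.5. Reaction ran 90 min at 20 °C with EDTA stop and HTRF anti-phosphotyrosine read. Method A: enzyme added last; Method B: 1 h enzyme–compound preincubation.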

[3] = Method B: enzyme mix pre-incubated with compound 1 hour at 20° C., started with substrate mix
[4] = Method A: substrate mix added first, reaction started with enzyme mix

Row | SMILES | IC50 [1] [nM] | Activity (Method): pIC50 class against ErbB2 or EGFR [2, 3] | Activity (Method): pIC50 class against ErbB2 or EGFR [2, 4]
1 | O=C(Nc1cccc(-c2nn3ccccc3c2-c2ccnc(Nc3cccc(F)c3)n2)c1)c1ccsc1 [Example 81, N-[3-(3-{2-[(3-fluorophenyl)amino]-4-pyrimidinyl}pyrazolo[1,5-a]pyridin-2-yl)phenyl]-3-thiophenecarboxamide] | 100 to 1000 | ++ (B) (at least one pIC50 measurement greater than 6 against either ErbB2 or EGFR but no measurement greater than pIC50 of 7) | –
2 | Cn1cccc1C(=O)Nc1cccc(-c2nn3ccccc3c2-c2ccnc(Nc3cccc(F)c3)n2)c1 [Example 82, N-[3-(3-{2-[(3-fluorophenyl)amino]-4-pyrimidinyl}-pyrazolo[1,5-a]pyridin-2-yl)phenyl]-1-methyl-1H-pyrrole-2-carboxamide] | 100 to 1000 | +++ (B) (at least one pIC50 measurement of greater than 7 against either ErbB2 or EGFR) | –
3 | O=C(Nc1cccc(-c2nn3ccccc3c2-c2ccnc(Nc3ccon3)n2)c1)c1c(F)cccc1F [Example 85, 2,6-Difluoro-N-(3-{3-[2-(3-isoxazolylamino)-4-pyrimidinyl]pyrazolo[1,5-a]pyridin-2-yl}phenyl)benzamide] | 100 to 1000 | – | +++ (A) (at least one pIC50 measurement of greater than 7 against either ErbB2 or EGFR)
4 | N#Cc1cc(Nc2nccc(-c3c(-c4cccc(NC(=O)c5c(F)cccc5F)c4)nn4ccccc34)n2)ccc1F [Example 88] | < 100 | – | +++ (A) (at least one pIC50 measurement of greater than 7 against either ErbB2 or EGFR)
5 | O=C(Nc1cccc(-c2nn3ccccc3c2-c2ccnc(Nc3ccc(Cl)c(C(F)(F)F)c3)n2)c1)c1c(F)cccc1F [Example 89] | 100 to 1000 | – | ++ (A) (at least one pIC50 measurement greater than 6 against either ErbB2 or EGFR but no measurement greater than pIC50 of 7)
6 | N#Cc1cc(Nc2nccc(-c3c(-c4cccc(NC(=O)c5c(F)cccc5F)c4)nn4ccccc34)n2)ccc1-n1cccc1 [Example 90] | 100 to 1000 | – | ++ (A) (at least one pIC50 measurement greater than 6 against either ErbB2 or EGFR but no measurement greater than pIC50 of 7)
7 | O=C(Nc1cccc(-c2nn3ccccc3c2-c2ccnc(Nc3ccc(Cl)cc3)n2)c1)c1c(F)cccc1F [Example 92] | 100 to 1000 | – | ++ (A) (at least one pIC50 measurement greater than 6 against either ErbB2 or EGFR but no measurement greater than pIC50 of 7)
8 | Cc1cc(Nc2nccc(-c3c(-c4cccc(NC(=O)c5c(F)cccc5F)c4)nn4ccccc34)n2)ccc1C#N [Example 95] | < 100 | +++ (B) (at least one pIC50 measurement of greater than 7 against either ErbB2 or EGFR) | –
9 | O=C(Nc1cccc(-c2nn3ccccc3c2-c2ccnc(Nc3ccc(Nc4ccccc4)cc3)n2)c1)c1c(F)cccc1F [Example 96] | 100 to 1000 | – | ++ (A) (at least one pIC50 measurement greater than 6 against either ErbB2 or EGFR but no measurement greater than pIC50 of 7)
10 | O=C(c1ccccc1)c1ccc(Nc2nccc(-c3c(-c4cccc(NC(=O)c5c(F)cccc5F)c4)nn4ccccc34)n2)cc1 [Example 98, 2,6-Difluoro-N-{3-[3-(2-{[4-(phenylcarbonyl)phenyl]-amino}-4-pyrimidinyl)pyrazolo[1,5-a]pyridin-2-yl]phenyl}benzamide] | 100 to 1000 | – | ++ (A) (at least one pIC50 measurement greater than 6 against either ErbB2 or EGFR but no measurement greater than pIC50 of 7)
11 | O=C(Nc1cccc(-c2nn3ccccc3c2-c2ccnc(Nc3ccc(N4CCOCC4)c(F)c3)n2)c1)c1c(F)cccc1F [Example 99, 2,6-Difluoro-N-{3-[3-(2-{[3-fluoro-4-(4-morpholinyl)-phenyl]amino}-4-pyrimidinyl)pyrazolo[1,5-a]pyridin-2-yl]phenyl}benzamide] | < 100 | – | +++ (A) (at least one pIC50 measurement of greater than 7 against either ErbB2 or EGFR)
12 | O=C(Nc1cccc(-c2nn3ccccc3c2-c2ccnc(Nc3ccc(C(=O)N4CCOCC4)cc3)n2)c1)c1c(F)cccc1F [Example 100, 2,6-Difluoro-N-{3-[3-(2-{[4-(4-morpholinylcarbonyl)-phenyl]amino}-4-pyrimidinyl)pyrazolo[1,5-a]pyridin-2-yl]phenyl}benzamide] | < 100 | – | +++ (A) (at least one pIC50 measurement of greater than 7 against either ErbB2 or EGFR)
13 | COc1ccc(Nc2nccc(-c3c(-c4cccc(NC(=O)c5c(F)cccc5F)c4)nn4ccccc34)n2)cc1N1CCNCC1 [Example 111, 2,6-Difluoro-N-{3-[3-(2-{[4-(methyloxy)-3-(1-piperazinyl)phenyl]amino}-4-pyrimidinyl)pyrazolo[1,5-a]pyridin-2-yl]phenyl}benzamide] | < 100 | +++ (B) (at least one pIC50 measurement of greater than 7 against either ErbB2 or EGFR) | –
14 | CN(C)CCCc1ccc(Nc2nccc(-c3c(-c4cccc(NC(=O)c5c(F)cccc5F)c4)nn4ccccc34)n2)cc1 [Example 112, N-(3-{3-[2-({4-[3-(dimethylamino)propyl]phenyl}-amino)-4-pyrimidinyl]pyrazolo[1,5-a]pyridin-2-yl}phenyl)-2,6-difluorobenzamide] | < 100 | +++ (B) (at least one pIC50 measurement of greater than 7 against either ErbB2 or EGFR) | –
15 | CN(C)CC(=O)Nc1ccc(Nc2nccc(-c3c(-c4cccc(NC(=O)c5c(F)cccc5F)c4)nn4ccccc34)n2)cc1 [Example 113, N-(3-{3-[2-({4-[(N,N-dimethylglycyl)amino]phenyl}-amino)-4-pyrimidinyl]pyrazolo[1,5-a]pyridin-2-yl}phenyl)-2,6-difluorobenzamide] | < 100 | +++ (B) (at least one pIC50 measurement of greater than 7 against either ErbB2 or EGFR) | –
16 | O=C(Nc1cccc(-c2nn3ccccc3c2-c2ccnc(Nc3ccc4c(c3)OCCO4)n2)c1)c1c(F)cccc1F [Example 114, N-(3-{3-[2-(2,3-dihydro-1,4-benzodioxin-6-ylamino)-4-pyrimidinyl]pyrazolo[1,5-a]pyridin-2-yl}phenyl)-2,6-difluorobenzamide] | < 100 | – | +++ (A) (at least one pIC50 measurement of greater than 7 against either ErbB2 or EGFR)
17 | COCCOc1ccc(Nc2nccc(-c3c(-c4cccc(NC(=O)c5c(F)cccc5F)c4)nn4ccccc34)n2)cc1Cl [Example 125, N-[3-(3-{2-[(3-Chloro-4-{[2-(methyloxy)ethyl]oxy}-phenyl)amino]-4-pyrimidinyl}pyrazolo[1,5-a]pyridin-2-yl)phenyl]-2,6-difluorobenzamide] | < 100 | – | +++ (A) (at least one pIC50 measurement of greater than 7 against either ErbB2 or EGFR)
18 | CN(CCCOc1ccc(N)cc1F)c1nccc(-c2c(-c3cccc(NC(=O)c4c(F)cccc4F)c3)nn3ccccc23)n1 [Example 130, N-[3-(3-{2-[{3-[(4-Amino-2-fluorophenyl)oxy]propyl}(methyl)amino]-4-pyrimidinyl}pyrazolo[1,5-a]pyridin-2-yl)phenyl]-2,6-difluorobenzamide] | > 1000 | – | ++ (A) (at least one pIC50 measurement greater than 6 against either ErbB2 or EGFR but no measurement greater than pIC50 of 7)
